Measured values from patent US9494592B2, “Reaction-based fluorescent probes for sulfane sulfur and the application in bioimaging” (Washington State University, priority 2013, dated 2016).

Legend:
[1] = excited at 330 nm in sodium phosphate buffer (0.1 M; pH 7.4); cited from earlier work
[2] = Fluorescence quantum yield determination; type: physicochemical; conditions: probe alone; aqueous PBS buffer solution (pH 7.4)
Description: The quantum yield was calculated according to the equation:^3 (Φsample=Φstandard*(Isample/Istandard)*(Astandard/Asample)*(nsample/nstandard)^2) Φ denotes the quantum yield; I denotes the area under the fluorescence band; A denotes the absorbance at the excitation wavelength; n denotes the refractive index of the solvent.
For quantum yield of SSP1, it was determined using 7-hydroxycoumarin as a standard by comparing the area under the corrected emission spectrum of the test sample with that of a solution of 7-hydroxycoumarin excited at 330 nm in sodium phosphate buffer (0.1 M; pH 7.4), which has a quantum efficiency of 0.76 according to the literature.
For quantum yield of SSP2, Quantum yield was determined using fluorescein as a standard by comparing the area under the corrected emission spectrum of the test sample with that of a solution of fluorescein excited at 490 nm in 0.1 N NaOH, which has a quantum efficiency of 0.85 according to the literature.

[3] = Fluorescence response of probes to Na2S2 (H2S2 equivalent) in PBS buffer with CTAB; conditions: probe 5.0 μM, Na2S2 25 μM, 50 mM PBS pH 7.4, 1 mM CTAB, rt
Description: The stock solution of SSP1 (1 mM) and SSP2 (1 mM) were prepared in CH3CN, respectively. The solutions of various testing species were prepared from Cysteine (Cys), GSH, Homocysteine (Hcy), Glutathione disulfide (GSSG), Na2S.9H2O, Na2S2O3, Na2SO3, Na2SO4, Na2S2 in 50 mM PBS buffer. The stock solution of Cetrimonium bromide (CTAB, 100 mM) and S8 (10 mM) were prepared in EtOH, respectively. The stock solution of Cys-polysulfide (10 mM) was prepared in CH3CN. All the test solution need to be freshly prepared.
Unless otherwise noted, all the measurements were carried out for 10 min at 25° C. in 50 mM PBS buffer (pH 7.4) with 1 mM CTAB according to the following procedure. In a test tube, 3.5 mL of 50 mM PBS buffer (pH 7.4) and 40 μL of the stock solution of CTAB were mixed, and then added 20 μL of the stock solution of SSP1 or SSP2. The resulting solution was mixed well, followed by addition of a requisite volume of testing species sample solution. The final volume of the reaction solution was adjusted to 4 mL with 50 mM PBS buffer (pH 7.4). After mixing and then standing for 10 min at room temperature, a 4-mL portion of the reaction solution was transferred into a 1-cm quartz cell to measure fluorescence with λex=380 nm (for SSP1) or 482 nm (SSP2). In the meantime, a blank solution containing no testing species sample was prepared and measured under the same conditions for comparison. […]

[4] = Effect of pH on probe fluorescence and stability; type: physicochemical; conditions: probe 5.0 μM, 50 mM PBS, 1 mM CTAB
Description: FIGS. 2A-B Fluorescence intensity changes of (FIG. 2A) 5.0 μM SSP1 and (FIG. 2B) 5.0 μM SSP2 at different pH values in the absence (▪) or presence (●) of Na2S2 (25 μM). The reactions were carried out for 10 min at 25° C. in 50 mM PBS buffer with 1 mM CTAB. Data (A) were acquired at 458 nm and excited at 380 nm. Data (B) were acquired at 518 nm and excited at 482 nm.
Unless otherwise noted, all the measurements were carried out for 10 min at 25° C. in 50 mM PBS buffer (pH 7.4) with 1 mM CTAB according to the following procedure. In a test tube, 3.5 mL of 50 mM PBS buffer (pH 7.4) and 40 μL of the stock solution of CTAB were mixed, and then added 20 μL of the stock solution of SSP1 or SSP2. The resulting solution was mixed well, followed by addition of a requisite volume of testing species sample solution. The final volume of the reaction solution was adjusted to 4 mL with 50 mM PBS buffer (pH 7.4). After mixing and then standing for 10 min at room temperature, a 4-mL portion of the reaction solution was transferred into a 1-cm quartz cell to measure fluorescence with λex=380 nm (for SSP1) or 482 nm (SSP2). In the meantime, a blank solution containing no testing species sample was prepared and measured under the same conditions for comparison. All the measurements were repeated three times and data reported were averages.

[5] = Selectivity: fluorescence response to sulfane sulfur compounds; conditions: sulfane sulfurs at 25 μM (H2S2, Cys-polysulfide, S8), probe 5.0 μM, 10 min, PBS pH 7.4, 1 mM CTAB
Description: FIGS. 5A-B Fluorescence enhancement (F/F0) of 5.0 μM probes in the presence of various reactive sulfur species. (FIG. 5A) data of SSP1 (Ex/Em=380/458 nm). (FIG. 5B) data of SSP2 (Ex/Em=482/518 nm). The reactions were carried out for 10 min at rt in PBS buffer (50 mM, pH 7.4) with 1 mM CTAB. (1) probe alone; (2) 1 mM Cys; (3) 1 mM GSH; (4) 1 mM Hcy; (5) 100 μM GSSG; (6) 100 μM Na2S; (7) 100 μM Na2S2O3; (8) 100 μM Na2SO3; (9) 100 μM Na2SO4; (10) 25 μM Na2S2; (11) 25 μM Cys-polysulfide; (12) 25 μM S8.
The stock solution of SSP1 (1 mM) and SSP2 (1 mM) were prepared in CH3CN, respectively. The solutions of various testing species were prepared from Cysteine (Cys), GSH, Homocysteine (Hcy), Glutathione disulfide (GSSG), Na2S.9H2O, Na2S2O3, Na2SO3, Na2SO4, Na2S2 in 50 mM PBS buffer. The stock solution of Cetrimonium bromide (CTAB, 100 mM) and S8 (10 mM) were prepared in EtOH, respectively. […]
Unless otherwise noted, all the measurements were carried out for 10 min at 25° C. in 50 mM PBS buffer (pH 7.4) with 1 mM CTAB according to the following procedure. […] After mixing and then standing for 10 min at room temperature, a 4-mL portion of the reaction solution was transferred into a 1-cm quartz cell to measure fluorescence with λex=380 nm (for SSP1) or 482 nm (SSP2). In the meantime, a blank solution containing no testing species sample was prepared and measured under the same conditions for comparison. […]

[6] = test system: H9c2 cells; assay: Fluorescence imaging of H2S2 in H9c2 cells; type: cell-based; conditions: SSP2 50 μM 20 min
Description: (§1) FIGS. 6A-F Fluorescence images of H2S2 detection in H9c2 cells (a, b, c) and HeLa cells (d, e, f). Cells on glass coverslips were incubated with SSP2 (50 μM) for 20 min, then washed and subjected to different treatments. (a & d) controls (no Na2S2 was added); (b & e) treated with 50 μM Na2S2; (c & f) treated with 100 μM Na2S2.
(§2) H9c2 cells and HeLa cells were grown on glass-bottom culture dishes (Corning Inc.) in DMEM supplemented with 10% (v/v) FBS, penicillin (100 U/mL) and streptomycin (100 μg/mL) at 37° C. under a humidified atmosphere containing 5% CO2. Before use, the adherent cells were washed one time with FBS-free DMEM. For intracellular H2S2 imaging, the cells were incubated with 50 μM SSP2 in FBS-free DMEM (containing 200 μM CTAB) at 37° C. for 20 min. After removal of excess probe and washed with PBS (pH 7.4), the cells were incubated with 50 or 100 uM Na2S2 for 30 min in PBS buffer (pH 7.4, containing 500 μM CTAB). Cell imaging was carried out after washing the cells three times with PBS (pH 7.4).

[7] = test system: HeLa cells; assay: Fluorescence imaging of H2S2 in HeLa cells; type: cell-based; conditions: SSP2 50 μM 20 min
Description: as §1, §2

[8] = then Na2S2 (50 or 100 μM) for 30 min

| Compound | quantum efficiency of standard [1] | fluorescence quantum yield (Φ) [2] | fluorescence intensity increase [3] [folds] | hydrolytic stability at basic pH [4] | fluorescence response (enhancement F/F0) [5] | cell fluorescence at 100 μM versus 50 μM Na2S2 ([6]; Na2S2 30 min) | cell fluorescence after Na2S2 treatment [6, 8] | cell fluorescence without Na2S2 ([6]; washed, no Na2S2) | cell fluorescence at 100 μM versus 50 μM Na2S2 ([7]; Na2S2 30 min) | cell fluorescence after Na2S2 treatment [7, 8] | cell fluorescence without Na2S2 ([7]; washed, no Na2S2) |
| --- | --- | --- | --- | --- | --- | --- | --- | --- | --- | --- | --- |
| O=c1ccc2ccc(O)cc2o1 [7-hydroxycoumarin] | 0.76 |  |  |  |  |  |  |  |  |  |  |
| O=C(Oc1ccc2ccc(=O)oc2c1)c1ccccc1S [SSP1] |  | 0.06 | 25 | above pH 8, SSP1 undergoes small amount of hydrolysis | 26˜33 folds |  |  |  |  |  |  |
| COc1ccc2c(c1)Oc1cc(OC(=O)c3ccccc3S)ccc1C21OC(=O)c2ccccc21 (stereo not drawn) [SSP2] |  | 0.05 | 50 | remains stable up to pH 9 | 50˜60 folds | obviously stronger fluorescence | strong fluorescence | No significant fluorescent cells | obviously stronger fluorescence | strong fluorescence | No significant fluorescent cells |
